The values below come from patent US6599529B1, “Modified release multiple-units compositions of non-steroid anti-inflammatory drug substances (NSAIDs)” (Nycomed Danmark A/S, priority 1997, dated 2003).

For data set [1] the following is noted: in water and 0.1 N HCl at room temperature; cited from earlier work.
The conditions of data set [2]: cited from earlier work.
Data set [3] in a line: Solubility in 0.1 N HCl / water. It is filed as physicochemical.

Where only a bound is given, the exact number is not on record here.

In the case of `CC(=O)Oc1ccccc1C(=O)O` [acetylsalicylic acid], the “solubility (in words)” value in data set [1] was “practically insoluble”. Consider `COc1ccc2c(c1)c(CC(=O)O)c(C)n2C(=O)c1ccc(Cl)cc1` [indometacin], for which, in data set [1], the “solubility (in words)” value is listed as “practically insoluble”. Consider `CN1C(C(=O)Nc2ccccn2)=C(O)c2sc(Cl)cc2S1(=O)=O` [lornoxicam], for which the pKa value entry in data set [2] is given as “about 4.7”. Moreover, the solubility entry in data set [3] (at a pH corresponding to 0.1 N HCl, room temperature) is “less than 1 mg/100 ml”; in data set [3] (in 0.1 N HCl (aqueous solution of 0.1 N hydrochloric acid)), below 1 mg/100 ml.
